Measured values: ChEMBL document CHEMBL1129204, “Synthesis of ribofuranosyl glycosides of echiguanines A and B, inhibitors of phosphatidylinositol 4-kinase” (Bioorg Med Chem Lett, 1996)
Converted amounts (≈) assume the structure as drawn.

Legend:
[1] = biological target: T1, Phosphatidylinositol 4-kinase, PI4K (Homo sapiens, UniProt Q9BTU6+Q8TCG2+Q9UBF8+P42356); test: Inhibition of phosphatidylinositol 4-kinase at 100 ug/ml (weak inhibition); format: protein assay
[2] = biological target: T1, Phosphatidylinositol 4-kinase, PI4K; test: Inhibition of phosphatidylinositol 4-kinase; format: protein assay

SMILES	IC50 [1]	IC50 [2] [µg/mL]
N=C(N)CCNC(=O)c1cn(C2O[C@H](CO)C(O)[C@H]2O)c2nc(N)nc(O)c12 (single isomer, unassigned)	weak inhibition	
N=C(N)CCNC(=O)c1c[nH]c2nc(N)nc(O)c12 [ECHIGUANINE A]		0.03 (≈ 0.114 µM)
